Reference: BindingDB's records for doi:10.1021/jm960078j (University of Arizona, 1996)

Assay: Binding affinity towards Opioid receptor delta 1 was determined in guinea pig whole brain using [3H][4''-Cl-Phe4]-DPDPE as radioligand

Structure (SMILES): CCCC[C@@H](C(=O)N[C@@H](CC(=O)O)C(=O)N[C@@H](Cc1ccccc1)C(N)=O)N(C)C(=O)[C@H](NC(=O)CNC(=O)[C@@H](Cc1ccccc1)NC(=O)[C@H](Cc1ccc(O)cc1)NC(=O)[C@@H](N)CC(=O)O)[C@@H](C)c1c[nH]c2ccccc12
- IC50: 1050 nM

Structure (SMILES): CCCC[C@@H](C(=O)N[C@@H](CC(=O)O)C(=O)N[C@@H](Cc1ccccc1)C(N)=O)N(C)C(=O)[C@H](NC(=O)CNC(=O)[C@@H](Cc1ccccc1)NC(=O)[C@H](Cc1ccc(O)cc1)NC(=O)[C@@H](N)CC(=O)O)[C@H](C)c1c[nH]c2ccccc12
- IC50: 820 nM

Structure (SMILES): CCCC[C@@H](C(=O)N[C@@H](CC(=O)O)C(=O)N[C@@H](Cc1ccccc1)C(N)=O)N(C)C(=O)[C@@H](NC(=O)CNC(=O)[C@@H](Cc1ccccc1)NC(=O)[C@H](Cc1ccc(O)cc1)NC(=O)[C@@H](N)CC(=O)O)[C@@H](C)c1c[nH]c2ccccc12
- IC50: 140 nM

Structure (SMILES): CCCC[C@@H](C(=O)N[C@@H](CC(=O)O)C(=O)N[C@@H](Cc1ccccc1)C(N)=O)N(C)C(=O)[C@H](Cc1c[nH]c2ccccc12)NC(=O)CNC(=O)[C@@H](Cc1ccccc1)NC(=O)[C@H](Cc1ccc(O)cc1)NC(=O)[C@@H](N)CC(=O)O [(3S)-3-[(2S)-2-[(2S)-2-{2-[(2R)-2-[(2S)-2-[(3S)-3-amino-3-formamidopropanoic acid]-3-(4-hydroxyphenyl)propanamido]-3-phenylpropanamido]acetamido}-3-(1H-indol-3-yl)-N-methylpropanamido]hexanamido]-3-{[(1S)-1-carbamoyl-2-phenylethyl]carbamoyl}propanoic acid]
- IC50: 29 nM
